Measurements published in patent publication US20110217309A1, “BIOLOGICAL MARKERS PREDICTIVE OF ANTI-CANCER RESPONSE TO INSULIN-LIKE GROWTH FACTOR-1 RECEPTOR KINASE INHIBITORS” (priority 2010, published 2011).

Key:
Colo205 tumors = assay: Tumor xenograft study; conditions: treatment in vivo for 10-14 days
[1] = system: OVCAR-4, SKOV-3, OVCAR-3, OVCAR-8, CaOV3-5, and IGROV-1; assay: Cell Titer Glo proliferation assay, K-RAS wild-type OvCa lines; format: cell-based, human; conditions: other six OvCa cell lines of the panel, WT KRAS, 72 hours
Excerpt: KRAS mutation status, as reported by the Sanger Wellcome Trust, is noted. Results shown are typical of three or more independent experiments. Grey symbols indicate data for K-RAS mutant (mt) cell lines OVCAR-5 and MDAH2774. Black symbols indicate data for K-RAS wild-type (wt) cell lines OVCAR-4, SKOV-3, OVCAR-3, OVCAR-8, CaOV3-5, and IGROV-1. Cell Lines and Culture. Human cancer cell lines, were obtained from American Type Culture Collection (ATCC, Manassas, Va.), or the following additional indicated sources, and cultured in media as described. […] The basis of the assay is a luminescent quantitation of ATP present in a cell culture plate well. […] The assay utilizes a substrate that binds ATP to produce a luminescent signal, which can be read on a luminometer. […] Results were calculated as a fraction of the DMSO controlled cells.

[2] = system: broad panel (n=116) of additional RTKs and other protein kinases; conditions: at 1 μM; cited from earlier work
[3] = system: MDAH-2774 ovarian tumor cells; assay: Caspase 3/7 Glo apoptosis assay; format: cell-based, human; conditions: with 10 nM pactitaxel
Method: Measurement of apoptosis: Induction of apoptosis as measured by increased Caspase 3/7 activity was determined using the Caspase 3/7 Glo assay (Promega Corporation, Madison, Wis.). Cell lines were seeded at a density of 3000 cells per well in a 96-well plate. 24 hours after plating, cells were dosed with compounds. The signal for Caspase 3/7 Glo was determined 24 hours after dosing. The caspase 3/7 activity was normalized to cell number per well, using a parallel plate treated with Cell Titer Glo (Promega Corporation, Madison, Wis.). Signal for each well was normalized using the following formula: Caspase 3/7 Glo luminescence units/Cell Titer Glo fraction of DMSO control. All graphs were generated using PRISM® software (Graphpad Software, San Diego, Calif.).

Akt = assay: Phosphorylation of Akt (pAKT levels); format: cell-based; conditions: OSI-906, in the presence or absence of pactitaxel (100, 30, 10, 3, 1 nM)
Method: The dotted line in the plot represents the calculated theoretical expectation if the combination was additive in nature, and was determined using the Bliss model for additivity. […] C.
The dotted line in the plot represents the calculated theoretical result if the combination was additive in nature, and was determined using the Bliss model for additivity.

## C[C@]1(O)C[C@@H](c2nc(-c3ccc4ccc(-c5ccccc5)nc4c3)c3c(N)nccn32)C1 [OSI-906, cis-3-[8-amino-1-(2-phenyl-quinolin-7-yl)-imidazo[1,5-a]pyrazin-3-yl]-1-methyl-cyclobutanol]
Colo205 tumors
  % TGI (tumor growth inhibition): 90%
[1]
  sensitivity of proliferation: relatively insensitive
[2]
  inhibition of additional kinases: < 50%
[3]
  induction of apoptosis: enhances the induction of apoptosis
Akt
  phosphorylation of Akt (pAKT levels): decrease
